Assay results from PMC6862289, “Metabolic Profile, Bioavailability and Toxicokinetics of Zearalenone-14-Glucoside in Rats after Oral and Intravenous Administration by Liquid Chromatography High-Resolution Mass Spectrometry and Tandem Mass Spectrometry” (International Journal of Molecular Sciences, 2019).
Like-named read-outs stand apart in the source and are kept apart here.

Assays:
[1] = broiler chickens; cited from earlier work
[2] = pigs; cited from earlier work
estrogenic receptors = test system: estrogenic receptors; parameters: method as in PMID 32625539; details: compared with ZEN; cited from earlier work
[3] = Toxicokinetics of ZEN-14G in rats after oral and intravenous administration (plasma LC-MS/MS, non-compartmental analysis); format: in vivo, Wistar rats; details: for k el: mean ± SD, n = 12, read-out: λZ (elimination rate constant) (converted); for AUC(0-inf): read-out: AUC0-infinity; for half-life: read-out: Elimination t1/2 (converted); for amount observed in plasma after intravenous administration of ZEN-14G: i.v. ZEN-14G 0.75 mg/kg, Figure 3D; for level detected in plasma after oral administration of ZEN-14G: p.o. ZEN-14G 0.75 mg/kg, Figure 3A
Method: The validated LC-MS/MS method was eligible for the toxicokinetic characterization of ZEN-14G in rats. The obtained data (above the LOQ) were analyzed via non-compartmental analysis using WinNonlin 6.3 software (Pharsight Co. Mountain View, CA, USA). The area under the plasma concentration–time curve (AUC) was obtained using the trapezoidal rule with extrapolation to infinity. […] The half-life period of ZEN in pigs was much longer than ZEN-14G in rats, which may be attributed to enterohepatic circulation. […] The low absolute bioavailability of ZEN-14G might be due to the deglycosylation of ZEN-14G to ZEN. The CL and VZ are extremely different between oral (p.o.) and intravenous (i.v.) administration. The VZ depends on the total mass absorbed and the plasma concentration. For oral administration, the low plasma concentration of ZEN-14G may because ZEN-14G appeared to be distributed into a very large volume or rapidly biotransformed into other compounds. The low oral bioavailability and low plasma concentration of ZEN-14G led to the […] VZ than that of i.v. administration. […] CL is the volume of blood from which a compound is removed per unit time. In comparison with p.o., much more of ZEN-14G was absorbed in the plasma after intravenous injection (i.v.)—more volume of blood cleared of ZEN-14G per unit time.
ZEN-14G was dissolved in aqueous solution containing 0.5% carboxymethyl cellulose. We selected twelve Wistar rats (half male and half female, with an average weight of 180 g, obtained from Vital River Laboratory Animal Technology Co. Ltd (Beijing, China). The rats were raised for one week for acclimation before the experiment, and the rats went through a 12 h fast before dosing. Six rats were treated with ZEN-14G via oral gavage at a dosage of 0.75 mg/kg body weight followed by blood collection at 0.083, 0.16, 0.25, 0.5, 0.75, 1.0, 1.5, 2, 4, and 6 h post administration while the other six rats were administered with the same amount of ZEN-14G intravenously and the blood samples were collected at the same time points. After a one-week withdrawal period, a crossover design was used for the following experiment where the rats administered orally would receive intravenous administration and vice versa. […] All the animal experiments complied with the National Institutes of Health guide for the care and use of laboratory animals, which has been approved on 20 March 2018 by the ethical committee of China Agricultural University (Beijing, China) (2018-SYXK-0238).
We extracted 100 μL of plasma using 100 μL of acetonitrile followed by centrifugation for 5 min at 14,000× g at 4 °C. This analytical method was established based on the published literature. The supernatant was gathered, evaporated until dry and eventually re-dissolved in 100 μL of 15% acetonitrile. This analytical method was soundly validated in plasma before application.
The separation and identification of ZEN-14G and its metabolites were performed on a Phenomenex column (Kinetex 50 mm × 2.1 mm i.d. 1.7 μm particle size, C18) using an ultra-high-performance liquid chromatograph (Agilent 1260 Infinity) coupled to a triple quadrupole mass spectrometer (Agilent 6495) under negative ESI mode (Agilent Technologies, Palo Alto, CA, USA). The chromatographic separations were achieved through a gradient elution program. Mobile phase A was water containing 0.1% formic acid, and phase B was acetonitrile containing 0.1% formic acid. The gradient elution program for phase B was listed as: 0–1 min, 0%–15%; 1–2 min, 15%–45%; 2–4 min, 45%–90%; 4–5 min, 90%; 5–5.1 min, 90%–15%; and 5.1–6.0 min, 15%. The key parameters for the mass spectrometer were as follows: capillary voltage (3.5 kV); gas temperature (250 °C); gas flow (11 L/min); nebulizer (45 psi); sheath gas temperature (350 °C); and sheath gas flow (12 L/min). Furthermore, the detailed information on precursor ions and the product ions of ZEN-14G and quantifiable products are described in Table S1. […]

[4] = female pigs; cited from earlier work
[5] = poultry; cited from earlier work
[6] = rats; cited from earlier work
[7] = both sexes, Wistar, rat, in vivo, iv, 0.75 mg/kg body weight
[8] = both sexes, Wistar, rat, in vivo, po, 0.75 mg/kg body weight

Compound: CC1=C[C@H]2O[C@@H]3[C@H](O[C@@H]4O[C@H](CO)[C@@H](O)[C@H](O)[C@H]4O)C[C@](C)([C@@]2(CO)[C@H](O)C1=O)[C@]31CO1 [DON-3G, deoxynivalenol-3-β-D-glucoside]
- absolute oral bioavailability [1]: 3.79%
- absolute oral bioavailability [2]: 16.1%

Compound: CC1CCCC(=O)CCC/C=C/c2cc(OC3OC(CO)C(O)C(O)C3O)cc(O)c2C(=O)O1 (stereo not drawn) [ZEN-14G, Zearalenone-14-glucoside]
- estrogenic potency (estrogenic receptors): comparable to that of ZEN
- visible adverse phenomena ([3]; 0.75 mg/kg body weight, any route of administration (p.o., i.v.)): No visible adverse phenomena
- bioavailability ([3]; both sexes, Wistar, rat, in vivo, 0.75 mg/kg, AUC oral / AUC intravenous × 100%, 0.75 mg/kg body weight, read-out: F (absolute oral bioavailability)): ~9%
- AUC(0-t) [3, 7]: 1.79 ± 0.03 ng·h/mL
- k el [3, 7]: 0.000883 s⁻¹
- AUC(0-inf) [3, 7]: 1.8 ± 0.02 ng·h/mL
- half-life [3, 7]: 13.2 ± 1.8 min
- MRT ([3]; both sexes, Wistar, rat, in vivo, iv, 0.75 mg/kg, i.v., 0.75 mg/kg body weight, read-out: MRT (mean residence time)): 12 ± 1.8 min
- Vd ([3]; both sexes, Wistar, rat, in vivo, iv, 0.75 mg/kg, i.v., 0.75 mg/kg body weight, read-out: VZ (apparent volume of distribution)): 7.25 ± 1.23 L/kg
- Vd ([3]; both sexes, Wistar, rat, in vivo, iv, 0.75 mg/kg, i.v., 0.75 mg/kg body weight, read-out: VZ (apparent volume of distribution), as printed in text): 87.2 L/kg
- AUC(0-t) [3, 8]: 0.11 ± 0.03 ng·h/mL
- Cmax [3, 8]: 0.2 ± 0.03 ng/mL
- Tmax [3, 8]: 4.98 ± 0.6 min
- k el [3, 8]: 0.0002 s⁻¹
- AUC(0-inf) [3, 8]: 0.16 ± 0.02 ng·h/mL
- CL/F ([3]; both sexes, Wistar, rat, in vivo, po, 0.75 mg/kg body weight, read-out: CL (apparent total body clearance) (converted)): 4.5 L/h/kg
- half-life [3, 8]: 57.6 ± 4.2 min
- CL (apparent total body clearance) ([3]; i.v., 0.75 mg/kg body weight): 5.02 ± 0.62 L/h/kg
- VZ (apparent volume of distribution) ([3]; p.o., 0.75 mg/kg body weight): 6.24 ± 0.73 L/kg
- time point of the peak concentration ([3]; p.o., first time point): 5 min

Compound: CC1CCC[C@H](O)CCC/C=C/c2cc(OC3OC(CO)C(O)C(O)C3O)cc(O)c2C(=O)O1 (stereo partly drawn) [α-ZEL-14G]
- amount observed in plasma after intravenous administration of ZEN-14G [3]: small amount

Compound: CC1CCC[C@H](O)CCC/C=C/c2cc(O)cc(O)c2C(=O)O1 (stereo partly drawn) [α-ZEL, α-zearalenol]
- amount observed in plasma after intravenous administration of ZEN-14G [3]: small amount
- level detected in plasma after oral administration of ZEN-14G [3]: trace level

Compound: C[C@H]1CCCC(=O)CCC/C=C/c2cc(O)cc(O)c2C(=O)O1 [ZEN, Zearalenone]
- absolute oral bioavailability [4]: around 51.5%
- yield of ZEN in plasma relative to that of ZEN-14G ([3]; after i.v. ZEN-14G 0.75 mg/kg body weight): approximately 4.5 times
- level detected in plasma after oral administration of ZEN-14G [3]: trace level
- oral bioavailability [5]: 10%
- oral bioavailability [6]: 10%
